# Experimental data from patent US6737383B1, “Herbicidal oxadiazolidines” (priority 1999, dated 2004).
# Experiments:
# velvetleaf = assay: Test B pre/postemergence velvetleaf; assay type: in vivo, Abutilon theophrasti
# Procedure, shortened: (§1)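 Response is a visual 0-to-10 score relative to untreated plants, where 0 means no effect and 10 means complete control, taken twelve to sixteen days after application. Treatments went onto soil at planting and onto foliage of 1- to 4-leaf plants, using a surfactant-containing non-phytotoxic solvent.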
# pigweed = assay: Test B pre/postemergence pigweed; assay type: in vivo, Amaranthus retroflexus
# Procedure, shortened: as §1
# purple nutsedge = assay: Test B pre/postemergence purple nutsedge; assay type: in vivo, Cyperus rotundus
# Procedure, shortened: as §1
# duck salad = assay: Test B flood test duck salad; assay type: in vivo, Heteranthera limosa
# Procedure, shortened: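 Each value is a visual injury score relative to controls, with 10 meaning complete control and 0 no effect. Evaluation took place twelve to sixteen days after the 2-leaf-stage plants were treated and kept in the greenhouse.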
# crabgrass = assay: Test B pre/postemergence crabgrass; assay type: in vivo, Digitaria sanguinalis
# Procedure, shortened: as §1
# rape = assay: Test B pre/postemergence rape; assay type: in vivo, Brassica napus
# Procedure, shortened: as §1
# soybean = assay: Test B pre/postemergence soybean; assay type: in vivo, Glycine max
# Procedure, shortened: as §1
# sugar beet = assay: Test B pre/postemergence sugar beet; assay type: in vivo, Beta vulgaris
# Procedure, shortened: as §1
# wheat = assay: Test B pre/postemergence wheat; assay type: in vivo, Triticum aestivum
# Procedure, shortened: as §1
# corn = assay: Test B pre/postemergence corn; assay type: in vivo, Zea mays
# Procedure, shortened: as §1
# giant foxtail = assay: Test B pre/postemergence giant foxtail; assay type: in vivo, Setaria faberii
# Procedure, shortened: as §1
# cocklebur = assay: Test B pre/postemergence cocklebur; assay type: in vivo, Xanthium strumarium
# Procedure, shortened: as §1
# morningglory = assay: Test B pre/postemergence morningglory; assay type: in vivo, Ipomoea hederacea
# Procedure, shortened: as §1
# bedstraw = assay: Test B pre/postemergence bedstraw; assay type: in vivo, Galium aparine
# Procedure, shortened: as §1
# surinam grass = assay: Test B pre/postemergence surinam grass; assay type: in vivo, Brachiaria decumbens
# Procedure, shortened: as §1
# [1] = Postemergence, Rate 62 g/ha, scale 0 to 10, 0 is no effect, 10 is complete control
# [2] = Postemergence, Rate 125 g/ha, scale of 0 to 10 where 0 is no effect and 10 is complete control
# [3] = Postemergence, Rate 250 g/ha, scale of 0 to 10, 0 is no effect, 10 is complete control
# [4] = Postemergence, Rate 500 g/ha, scale of 0 to 10 where 0 is no effect and 10 is complete control
# [5] = Preemergence, Rate 62 g/ha, scale 0 to 10 (0 no effect, 10 complete control)
# [6] = Preemergence, Rate 125 g/ha, scale of 0 to 10 where 0 is no effect and 10 is complete control
# [7] = Preemergence, Rate 500 g/ha, scale of 0 to 10 where 0 is no effect and 10 is complete control
smiles,measurement,setting,value
C=C(Cn1c(=O)on(C(=O)N(c2ccccc2)C(C)C)c1=O)c1cccc(Cl)n1 [Compound 605],"Plant response rating, Velvetleaf",velvetleaf; [1],0
same,"Plant response rating, Velvetleaf",velvetleaf; [2],0
same,Velvetleaf plant response rating,velvetleaf; [3],0
same,"Plant response rating, Velvetleaf",velvetleaf; [4],0
same,Velvetleaf plant response rating,velvetleaf; [5],0
same,Velvetleaf plant response rating,velvetleaf; [6],0
same,"Plant response rating, Velvetleaf",velvetleaf; [7],0
same,"Plant response rating, Redroot pigweed",pigweed; [1],0
same,"Plant response rating, Redroot pigweed",pigweed; [2],0
same,Redroot pigweed plant response rating,pigweed; [3],0
same,"Plant response rating, Redroot pigweed",pigweed; [4],0
same,Redroot pigweed plant response rating,pigweed; [5],0
same,Redroot pigweed plant response rating,pigweed; [6],0
same,"Plant response rating, Redroot pigweed",pigweed; [7],0
same,"Plant response rating, Nutsedge",purple nutsedge; [1],0
same,"Plant response rating, Nutsedge",purple nutsedge; [2],0
same,Nutsedge plant response rating,purple nutsedge; [3],0
same,"Plant response rating, Nutsedge",purple nutsedge; [4],0
same,Nutsedge plant response rating,purple nutsedge; [5],0
same,Nutsedge plant response rating,purple nutsedge; [6],0
same,"Plant response rating, Nutsedge",purple nutsedge; [7],0
same,"Plant response rating, Ducksalad (0 to 10 scale, 0 is no effect, 10 is complete control)","duck salad; Rate 62 g/ha, flood test species, Pre-emergence, visual evaluation after twelve to sixteen days",0
same,"Ducksalad plant response rating (0 to 10 scale, 0 is no effect, 10 is complete control)","duck salad; Rate 125 g/ha, under heading Pre-emergence, flood test species, visual evaluation after twelve to sixteen days",0
same,Ducksalad plant response rating,"duck salad; Rate 250 g/ha, Pre-emergence (flood test species), scale 0 to 10, 0 is no effect, 10 is complete control",0
same,Ducksalad plant response rating,"duck salad; Rate 500 g/ha, Pre-emergence section of Table B, 0 to 10 scale (0 no effect, 10 complete control)",0
same,"Plant response rating, Crabgrass",crabgrass; [1],0
same,"Plant response rating, Crabgrass",crabgrass; [2],0
same,Crabgrass plant response rating,crabgrass; [3],1
same,"Plant response rating, Crabgrass",crabgrass; [4],3
same,Crabgrass plant response rating,crabgrass; [5],0
same,Crabgrass plant response rating,crabgrass; [6],3
same,"Plant response rating, Crabgrass",crabgrass; [7],10
same,"Plant response rating, Rape",rape; [1],0
same,"Plant response rating, Rape",rape; [2],0
same,Rape plant response rating,rape; [3],0
same,"Plant response rating, Rape",rape; [4],0
same,Rape plant response rating,rape; [5],0
same,Rape plant response rating,rape; [6],0
same,"Plant response rating, Rape",rape; [7],0
same,"Plant response rating, Soybean",soybean; [1],2
same,"Plant response rating, Soybean",soybean; [2],2
same,Soybean plant response rating,soybean; [3],3
same,"Plant response rating, Soybean",soybean; [4],5
same,Soybean plant response rating,soybean; [5],0
same,Soybean plant response rating,soybean; [6],0
same,"Plant response rating, Soybean",soybean; [7],0
same,"Plant response rating, Sugarbeets",sugar beet; [1],0
same,"Plant response rating, Sugarbeets",sugar beet; [2],0
same,Sugarbeets plant response rating,sugar beet; [3],0
same,"Plant response rating, Sugarbeets",sugar beet; [4],0
same,Sugarbeets plant response rating,sugar beet; [5],0
same,Sugarbeets plant response rating,sugar beet; [6],0
same,"Plant response rating, Sugarbeets",sugar beet; [7],0
same,"Plant response rating, Wheat",wheat; [1],1
same,"Plant response rating, Wheat",wheat; [2],1
same,Wheat plant response rating,wheat; [3],1
same,"Plant response rating, Wheat",wheat; [4],2
same,Wheat plant response rating,wheat; [5],0
same,Wheat plant response rating,wheat; [6],0
same,"Plant response rating, Wheat",wheat; [7],0
same,"Plant response rating, Corn",corn; [1],0
same,"Plant response rating, Corn",corn; [2],0
same,Corn plant response rating,corn; [3],0
same,"Plant response rating, Corn",corn; [4],0
same,Corn plant response rating,corn; [5],0
same,Corn plant response rating,corn; [6],0
same,Corn plant response rating (0 to 10 scale),"corn; Preemergence, Rate 250 g/ha",0
same,"Plant response rating, Corn",corn; [7],0
same,"Plant response rating, Giant foxtail",giant foxtail; [1],0
same,"Plant response rating, Giant foxtail",giant foxtail; [2],0
same,Giant foxtail plant response rating,giant foxtail; [3],0
same,"Plant response rating, Giant foxtail",giant foxtail; [4],2
same,Giant foxtail plant response rating,giant foxtail; [5],2
same,Giant foxtail plant response rating,giant foxtail; [6],10
same,"Plant response rating, Giant foxtail",giant foxtail; [7],10
same,"Plant response rating, Cocklebur",cocklebur; [1],0
same,"Plant response rating, Cocklebur",cocklebur; [2],0
same,Cocklebur plant response rating,cocklebur; [3],0
same,"Plant response rating, Cocklebur",cocklebur; [4],0
same,Cocklebur plant response rating,cocklebur; [5],0
same,Cocklebur plant response rating,cocklebur; [6],0
same,Cocklebur plant response rating (0 to 10 scale),"cocklebur; Preemergence, Rate 250 g/ha",0
same,"Plant response rating, Cocklebur",cocklebur; [7],0
same,"Plant response rating, Morningglory",morningglory; [2],6
same,Morningglory plant response rating,morningglory; [3],9
same,"Plant response rating, Morningglory",morningglory; [4],10
same,Morningglory plant response rating,morningglory; [5],0
same,Morningglory plant response rating,morningglory; [6],0
same,"Plant response rating, Bedstraw",bedstraw; [1],0
same,Bedstraw plant response rating,bedstraw; [5],0
same,Bedstraw plant response rating,bedstraw; [6],0
same,Bedstraw plant response rating (0 to 10 scale),"bedstraw; Preemergence, Rate 250 g/ha",0
same,Bedstraw plant response rating,bedstraw; [7],0
same,"Plant response rating, B. signalgrass",surinam grass; [1],0
same,"Plant response rating, B. signalgrass",surinam grass; [2],0
same,B. signalgrass plant response rating,surinam grass; [3],0
same,"Plant response rating, B. signalgrass",surinam grass; [4],0
same,B. signalgrass plant response rating,surinam grass; [5],0
same,B. signalgrass plant response rating,surinam grass; [6],0
same,"B. signalgrass plant response rating (0 to 10 scale, 0 is no effect, 10 is complete control)","surinam grass; Preemergence, Rate 250 g/ha",0
same,B. signalgrass plant response rating,surinam grass; [7],0
